Measured values reported in patent US9174980B2, “Heterocyclic compounds as inhibitors of leukotriene production” (Boehringer Ingelheim International GmbH, priority 2012, dated 2015).

Assays:
[1] = molecular target: T1, recombinant human FLAP protein (Homo sapiens, UniProt P20292); assay: FLAP binding assay (Scintillation Proximity Assay, displacement of [125I]L-691,831); conditions: read-out: Human FLAP SPA Binding (IC50 nM)
T1 construct: made in house; host or cells: Sf9 insect cells (membrane fraction, 100,000 x g pellet)
T1 sequence (P20292 1-161): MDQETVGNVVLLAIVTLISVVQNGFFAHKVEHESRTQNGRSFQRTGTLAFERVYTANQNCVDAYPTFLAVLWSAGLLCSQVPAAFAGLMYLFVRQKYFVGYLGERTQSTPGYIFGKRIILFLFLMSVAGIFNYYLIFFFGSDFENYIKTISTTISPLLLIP
Protocol: Compounds are assessed for the ability to bind to FLAP in a binding assay that measures compound-specific displacement of an iodinated (^125I) FLAP inhibitor via a Scintillation Proximity Assay format (adapted from S. Charleson et al., Mol. Pharmacol., 1992, 41, 873-879).
Cell pellets produced from sf9 insect cells expressing recombinant human FLAP protein are resuspended in buffer A [15 mM Tris-HCl (pH 7.5), 2 mM MgCl2, 0.3 mM EDTA, 1 mM PMSF]. The cells are lysed with a Dounce homogenizer and the material is centrifuged at 10,000×g for 10 minutes. The supernatant is then collected and centrifuged at 100,000×g for 60 minutes. To prepare membrane protein for an assay, an aliquot of the 100,000×g pellet is resuspended in 1 ml of buffer A, Dounce homogenized, and finally subjected to polytron mixing (30 seconds). Membrane protein (25 μl, 5 μg) is mixed with WGA SPA beads (Amersham) and stirred for 1 h. To an assay plate (Perkin Elmer FlexiPlate) is added 25 μl of test compound prepared in Binding buffer [100 mM Tris (pH 7.5), 140 mM NaCl, 5% glycerol, 2 mM EDTA, 0.5 mM TCEP, 0.05% Tween 20], 25 μl of [^125I]L-691,831 (an iodinated analog of MK-591, Charleson et al. Mol. Pharmacol., 41, 873-879, 1992) and finally 50 μl of the bead/protein mixture. (final concentrations: beads, 200 μg/well; protein, 5 μg/well; [^125I] probe, 0.08 nM/well (17 nCi/well). The plates are shaken for 2 h before reading on a Microbeta plate reader. Non-specific binding is determined by the addition of 10 μM cold L-691,831 compound.

[2] = system: synthesis of LTB4 in human whole blood; assay: Human whole blood assay (calcimycin-stimulated LTB4 synthesis); type: cell-based; conditions: Homo sapiens; read-out: Human Whole Blood LTB4 Assay for FLAP (IC50 nM)
Protocol: Compounds are additionally tested in a human whole blood assay to determine their ability to inhibit the synthesis of LTB4 in a cellular system. Compounds are combined with heparinized human whole blood and incubated for 15 minutes at 37° C. Calcimycin (20 μM final, prepared in phosphate-buffered saline, pH 7.4) is then added and the mixture is incubated for another 30 minutes at 37° C. The samples are centrifuged for 5 min at low speed (1500×g) and the plasma layer is removed. Plasma LTB4 concentrations are then measured using an antibody-based homogenous time-resolved fluorescence method (CisBio, Bedford, Mass.).

SMILES	IC50 [1] [nM]	IC50 [2] [nM]
CC(C)C(C)(c1ccc(-c2cnc(N)nc2)cc1)c1cn(Cc2ccccn2)c2ccccc12 (centres unmarked) [Example 28, 5-(4-{3-methyl-2-[1-(pyridin-2-ylmethyl)-1H-indol-3-yl]butan-2-yl}phenyl)pyrimidin-2-amine]	3.3	610
CC(C)C(C)(c1ccc(-c2cnc(N)nc2)cc1)c1cn(Cc2ccc(Cl)cc2)c2ccccc12 (centres unmarked) [Example 29, 5-(4-{2-[1-(4-chlorobenzyl)-1H-indol-3-yl]-3-methylbutan-2-yl}phenyl)pyrimidin-2-amine]	5.1	2700
CN(C)CCn1cc(-c2cc([C@](C)(c3ccc(-c4cnc(N)nc4)cc3)C3CC3)no2)cn1 [Example 30, 5-{4-[(1S)-1-cyclopropyl-1-(5-{1-[2-(dimethylamino)ethyl]-1H-pyrazol-4-yl}-1,2-oxazol-3-yl)ethyl]phenyl}pyrimidin-2-amine]	330	1200
CC(C)C(C)(c1ccc(-c2cnc(N)nc2)cc1)c1cn(C)c2ccc(F)cc12 (centres unmarked) [Example 31, 5-{4-[2-(5-fluoro-1-methyl-1H-indol-3-yl)-3-methylbutan-2-yl]phenyl}pyrimidin-2-amine]	7.1	1200
CC(C)C(C)(c1ccc(-c2cnc(N)nc2)cc1)c1cn(C)c2ccccc12 (centres unmarked) [Example 32, 5-{4-[3-methyl-2-(1-methyl-1H-indol-3-yl)butan-2-yl]phenyl}pyrimidin-2-amine]	3.3	650
Nc1ncc(-c2ccc(C3(c4c[nH]c5ccccc45)CCOCC3)cc2)cn1 [Example 33, 5-{4-[4-(1H-indol-3-yl)tetrahydro-2H-pyran-4-yl]phenyl}pyrimidin-2-amine]	290	> 5000
CC(C)C(C)(c1ccc(-c2cnc(N)nc2)cc1)c1cn(Cc2ccc(Cl)cc2)c2ncccc12 (centres unmarked) [Example 34, 5-(4-{2-[1-(4-chlorobenzyl)-1H-pyrrolo[2,3-b]pyridin-3-yl]-3-methylbutan-2-yl}phenyl)pyrimidin-2-amine]	3.4	460
Nc1ncc(-c2ccc(C3(c4cn(Cc5ccccn5)c5ccccc45)CCOCC3)cc2)cn1 [Example 35, 5-(4-{4-[1-(pyridin-2-ylmethyl)-1H-indol-3-yl]tetrahydro-2H-pyran-4-yl}phenyl)pyrimidin-2-amine]	150	> 5000
CC(C)C(C)(c1ccc(OCc2ccccn2)cc1)c1cn(C)c2cc(C(=O)O)ccc12 (centres unmarked) [Example 36, 23-[1,2-dimethyl-1-[4-(2-pyridylmethoxy)phenyl]propyl]-1-methyl-indole-6-carboxylic acid]	1.8	1900
CC(C)C(C)(c1ccc(OCc2ccccn2)cc1)c1cn(C)c2cc(C(=O)Nc3cccnn3)ccc12 (centres unmarked) [Example 37, 3-[1,2-dimethyl-1-[4-(2-pyridylmethoxy)phenyl]propyl]-1-methyl-N-pyridazin-3-yl-indole-6-carboxamide]	1.4	150
CC(C)C(C)(c1ccc(OCc2ccccn2)cc1)c1cn(C)c2cc(C(N)=O)ccc12 (centres unmarked) [Example 38, 3-[1,2-dimethyl-1-[4-(2-pyridylmethoxy)phenyl]propyl]-1-methyl-indole-6-carboxamide]	1.4	240
CC(C)C(C)(c1ccc(-c2cnc(N)nc2)cc1)c1cn(C)c2ncccc12 (centres unmarked) [Example 39, 5-{4-[3-methyl-2-(1-methyl-1H-pyrrolo[2,3-b]pyridin-3-yl)butan-2-yl]phenyl}pyrimidin-2-amine]	3.3	290
CC(C)C(C)(c1ccc(-c2cnc(N)nc2)cc1)c1cn(Cc2ccccn2)c2cccc(F)c12 (centres unmarked) [Example 40, 5-(4-{2-[4-fluoro-1-(pyridin-2-ylmethyl)-1H-indol-3-yl]-3-methylbutan-2-yl}phenyl)pyrimidin-2-amine]	2.6	540
CC(C)C(C)(c1ccc(-c2cnc(N)nc2)cc1)c1cn(Cc2ccccn2)c2c(F)cccc12 (centres unmarked) [Example 41, 5-(4-{2-[7-fluoro-1-(pyridin-2-ylmethyl)-1H-indol-3-yl]-3-methylbutan-2-yl}phenyl)pyrimidin-2-amine]	3.4	1300
CC(C)C(C)(c1ccc(-c2cnc(N)nc2)cc1)c1c[nH]c2ccccc12 (centres unmarked) [Example 42, 5-{4-[2-(1H-indol-3-yl)-3-methylbutan-2-yl]phenyl}pyrimidin-2-amine]	2.5	170

The next lines start with the values.

IC50 [1] [nM]	IC50 [2] [nM]	SMILES
30	1500	Cc1cn(C(C)(c2ccc(-c3cnc(N)nc3)cc2)C(C)C)c2ccccc12 (centres unmarked) [Example 43, 5-{4-[3-methyl-2-(3-methyl-1H-indol-1-yl)butan-2-yl]phenyl}pyrimidin-2-amine]
21	> 5000	Cn1nc(C(c2ccc(-c3cnc(N)nc3)cc2)C(C)(C)C)c2ccccc21 (centres unmarked) [Example 44, 5-[4-[2,2-dimethyl-1-(1-methylindazol-3-yl)propyl]phenyl]pyrimidin-2-amine]
1.4	260	COc1cccc2c(C(C)(c3ccc(-c4cnc(N)nc4)cc3)C(C)C)c[nH]c12 (centres unmarked) [Example 45, 5-{4-[2-(7-methoxy-1H-indol-3-yl)-3-methylbutan-2-yl]phenyl}pyrimidin-2-amine]
4.6	> 5000	CC(C)C(C)(c1ccc(-c2cnc(N)nc2)cc1)c1cn(CC(=O)O)c2ncccc12 (centres unmarked) [Example 47, (3-{2-[4-(2-aminopyrimidin-5-yl)phenyl]-3-methylbutan-2-yl}-1H-pyrrolo[2,3-b]pyridin-1-yl)acetic acid]
2	810	CC(C)C(C)(c1ccc(-c2cnc(N)nc2)cc1)c1cn(Cc2ccccn2)c2cc(F)ccc12 (centres unmarked) [Example 49, 5-(4-{2-[6-fluoro-1-(pyridin-2-ylmethyl)-1H-indol-3-yl]-3-methylbutan-2-yl}phenyl)pyrimidin-2-amine]
260	> 5000	COc1cccc2c1c(C(C)(c1ccc(-c3cnc(N)nc3)cc1)C(C)C)cn2Cc1ccccn1 (centres unmarked) [Example 50, 5-(4-{2-[4-methoxy-1-(pyridin-2-ylmethyl)-1H-indol-3-yl]-3-methylbutan-2-yl}phenyl)pyrimidin-2-amine]
2.7	840	COc1cccc2c(C(C)(c3ccc(-c4cnc(N)nc4)cc3)C(C)C)cn(Cc3ccccn3)c12 (centres unmarked) [Example 51, 5-(4-{2-[7-methoxy-1-(pyridin-2-ylmethyl)-1H-indol-3-yl]-3-methylbutan-2-yl}phenyl)pyrimidin-2-amine]
3.1	2200	CC(C)C(C)(c1ccc(-c2cnc(N)nc2)cc1)c1cn(CCN2CCN(C)CC2)c2ccccc12 (centres unmarked) [Example 52, 5-[4-(3-methyl-2-{1-[2-(4-methylpiperazin-1-yl)ethyl]-1H-indol-3-yl}butan-2-yl)phenyl]pyrimidin-2-amine]
400	> 5000	COC(c1ccc(-c2cnc(N)nc2)cc1)(c1nn(C)c2ccccc12)C(C)(C)C (centres unmarked) [Example 53, 5-[4-[1-methoxy-2,2-dimethyl-1-(1-methylindazol-3-yl)propyl]phenyl]pyrimidin-2-amine]
8.3	840	CC(C)C(C)(c1ccc(-c2cnc(N)nc2)cc1)c1c[nH]c2cc(OC3CCOC3)ccc12 (centres unmarked) [Example 54, 5-(4-{3-methyl-2-[6-(tetrahydrofuran-3-yloxy)-1H-indol-3-yl]butan-2-yl}phenyl)pyrimidin-2-amine]
1100	> 5000	COCC(C)(c1ccc(-c2cnc(N)nc2)cc1)c1cn(CC(=O)O)c2ncccc12 (centres unmarked) [Example 55, (3-{2-[4-(2-aminopyrimidin-5-yl)phenyl]-1-methoxypropan-2-yl}-1H-pyrrolo[2,3-b]pyridin-1-yl)acetic acid]
160	> 5000	COCC(C)(c1ccc(-c2cnc(N)nc2)cc1)c1cn(C)c2ncccc12 (centres unmarked) [Example 56, 5-{4-[1-methoxy-2-(1-methyl-1H-pyrrolo[2,3-b]pyridin-3-yl)propan-2-yl]phenyl}pyrimidin-2-amine]
37	2600	COc1cccc2[nH]cc(C(C)(c3ccc(-c4cnc(N)nc4)cc3)C(C)C)c12 (centres unmarked) [Example 57, 5-{4-[2-(4-methoxy-1H-indol-3-yl)-3-methylbutan-2-yl]phenyl}pyrimidin-2-amine]
